Laboratory results taken from US8846951B2 (AbbVie Inc., priority 2009, dated 2014).
Entries after “also recorded” stand apart in the source; their conditions may differ.

Legend:
5HT2B receptors = target: T1, 5HT2B receptors (Homo sapiens, UniProt P41595); experiment: Human 5-HT2B functional high throughput screening assay in CHO-K1 cells (calcium flux); type: cell-based; conditions: for Emax: CHO-K1; for EC50: EC50, 5-HT2B agonist activity, CHO-K1 cells, calcium flux
T1 construct: expressed in transfected cells; host or cells: CHO-K1 cells
T1 sequence (P41595 whole entry): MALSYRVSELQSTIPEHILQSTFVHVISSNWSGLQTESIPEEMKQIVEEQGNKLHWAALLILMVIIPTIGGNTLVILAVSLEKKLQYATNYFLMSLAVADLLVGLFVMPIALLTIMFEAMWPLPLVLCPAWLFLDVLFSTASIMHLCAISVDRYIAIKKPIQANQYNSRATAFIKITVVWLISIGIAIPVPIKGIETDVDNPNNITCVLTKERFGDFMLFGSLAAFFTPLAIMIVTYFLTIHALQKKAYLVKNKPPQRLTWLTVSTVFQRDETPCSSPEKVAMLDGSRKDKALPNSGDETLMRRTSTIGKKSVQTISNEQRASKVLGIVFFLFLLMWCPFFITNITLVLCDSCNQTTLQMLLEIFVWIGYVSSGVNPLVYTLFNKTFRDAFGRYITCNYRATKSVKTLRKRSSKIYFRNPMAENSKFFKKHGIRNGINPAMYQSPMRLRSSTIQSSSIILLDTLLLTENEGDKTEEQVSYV
Procedure, shortened: (§1)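 Agonism is measured as intracellular calcium increase in receptor-overexpressing CHO-K1 cells, read by FLIPR at 25 °C. Responses are expressed relative to serotonin, with EC50 and Emax derived from a 4-parameter logistic curve over 6 concentrations starting at 10 μM.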

[1] = test system: AMP- or PCP-induced hyperactivity; experiment: Psychostimulant (AMP or PCP)-induced hyperlocomotion in mice; type: in vivo, mouse; conditions: for spontaneous activity: after ip test compound, before psychostimulant; for AMP-induced hyperactivity: test compound ip 30 min before d-amphetamine 2.0 mg/kg sc
Description: (x) Assessment of Effects on Psychostimulant-Induced Hyperlocomotion in Mice
In both humans and experimental animals amphetamine (AMP) profoundly affects motor activity, sensorimotor function, sleep, attention, aggressive and sexual behaviors, learning and memory, operant behaviors, appetite and food intake. In addition, amphetamine induces psychotic reactions in normal individuals and exacerbates symptoms of schizophrenia in patients. In experimental animals several distinct behaviors are considered to be correlates of amphetamine psychosis. For example, amphetamine-induced hyperactivity in rodents is believed to model the psychotic symptoms of schizophrenia. Reversal of these behaviors is used to predict potential antipsychotic activity of drugs in pre-clinical studies.
In humans, phencyclidine (PCP) is known to produce a syndrome of behavioral effects which have many characteristics in common with schizophrenia. Therefore, antagonism of PCP effects might be evidence for antipsychotic efficacy of a compound.
Male NMRI mice (5-week old, Janvier, France) or C57BL/6J mice (6-week old, Janvier, France) were group housed and allowed ad-libitum access to food and water. A 12 hour light/dark cycle was imposed with lights-on period between 0530 and 1730 hours. All testing occurred between 700 and 1300 hours. All procedures were approved by Abbott Institutional Animal Care and Use Committee (USA) or Animal Welfare Officer (Germany) and were conducted in accordance with the National Institutes of Health Guide for Care and Use of Laboratory Animals guidelines and applicable national laws in the facilities accredited by the Association for the Assessment and Accreditation of Laboratory Animal Care.
On the day of experiment, animals were brought from the animal facility into the experimental room and were allowed to acclimatize for at least 30 minutes. Animals were then placed in the test cages for a habituation period of 60 minutes. The animals were then injected ip with the test compound and returned to the test cage. 30 Minutes later the mice were injected with d-amphetamine (2.0 mg/kg, AMP, Sigma, #A5880, sc) or phencyclidine (2.0 mg/kg, PCP, Sigma, #P3029, sc) Sigma, and returned to the test cages for 90 minutes. Each treatment group consisted of 8-10 animals. The data was acquired by Cage rack Photobeam system (SDI, San Diego Instruments, CA). The analyzed data were: fine movements, ambulations and total movements (fine+ambulations). Data was subjected to one- or two-way distribution-free ANOVA followed by Dunnett's and Tukey's post hoc tests.

5HT2C receptors [2] = target: T2, 5HT2C receptors (Homo sapiens, UniProt P28335); experiment: Human 5-HT2C functional high throughput screening assay in CHO-K1 cells (calcium flux); type: cell-based; set-up: expressed in transfected cells; host or cells: CHO-K1 cells; conditions: for Emax: CHO-K1, 5-HT2C, maximum functional response as percentage relative to the effect of serotonin; for EC50: EC50, 5-HT2C agonist activity, CHO-K1 cells, calcium flux
T2 sequence (P28335 33-458): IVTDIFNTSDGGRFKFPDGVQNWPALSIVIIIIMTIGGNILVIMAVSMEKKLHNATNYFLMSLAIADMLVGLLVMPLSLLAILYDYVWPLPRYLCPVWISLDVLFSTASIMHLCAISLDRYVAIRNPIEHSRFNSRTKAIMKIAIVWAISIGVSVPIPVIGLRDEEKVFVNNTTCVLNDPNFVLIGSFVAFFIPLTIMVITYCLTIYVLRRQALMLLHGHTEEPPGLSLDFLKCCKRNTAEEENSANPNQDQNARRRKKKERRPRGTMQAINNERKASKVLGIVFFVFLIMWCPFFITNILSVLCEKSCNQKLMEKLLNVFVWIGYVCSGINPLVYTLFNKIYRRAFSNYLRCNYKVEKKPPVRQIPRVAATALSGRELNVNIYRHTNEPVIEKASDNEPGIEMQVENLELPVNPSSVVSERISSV
Procedure, shortened: as §1

h-5-HT6 receptor = target: T3, h-5-HT6 receptor (Homo sapiens, UniProt P50406); experiment: Human 5-HT6 receptor radioligand binding assay (HEK293 membranes, [3H]-LSD); conditions: HEK293 membranes expressing h-5-HT6 receptor, 1 nM [3H]-LSD; geometrical mean; read-out: Ki (5-HT6 Agonist Site Radioligand Binding)
T3 construct: expressed in transfected cells; host or cells: HEK293 cells (membranes)
T3 sequence (P50406 whole entry): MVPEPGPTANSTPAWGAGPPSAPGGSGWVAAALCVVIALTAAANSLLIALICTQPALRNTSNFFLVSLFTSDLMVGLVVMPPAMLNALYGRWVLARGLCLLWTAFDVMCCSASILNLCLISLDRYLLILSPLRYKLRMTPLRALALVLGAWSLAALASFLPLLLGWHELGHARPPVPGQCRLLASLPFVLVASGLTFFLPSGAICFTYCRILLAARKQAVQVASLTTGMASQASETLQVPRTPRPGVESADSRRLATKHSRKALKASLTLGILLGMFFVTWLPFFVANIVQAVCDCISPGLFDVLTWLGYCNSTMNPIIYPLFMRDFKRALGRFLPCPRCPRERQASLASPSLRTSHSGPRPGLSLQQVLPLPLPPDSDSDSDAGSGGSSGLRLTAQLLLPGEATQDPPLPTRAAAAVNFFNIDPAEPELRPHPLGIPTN
Protocol: (v) Human 5-HT6 Receptor Radioligand Binding Assay
Preparation of Membranes by Ultrasonic Treatment and Differential Centrifugation
Cells from stable clonal cell lines expressing the corresponding receptor (5-HT6) were washed with PBS (without Ca^++, Mg^++) and harvested in PBS with 0.02% EDTA. The cells were collected by centrifugation at 500 g for 10 minutes at 4° C., washed with PBS and centrifuged (500 g, 10 minutes at 4° C.). The pellets were stored at −80° C. until use. For membrane preparation, the thawed cell pellet was resuspended in ice-cold sucrose buffer (0.25 M sucrose, 10 mM HEPES (pH 7.4), 1 mM phenylmethylsulfonyl fluoride (PMSF) in DMSO, 5 μg/ml Pepstatin-A, 3 mM EDTA, 0.025% Bacitracin) and homogenized with a Branson Sonifier W-250 (Settings: Timer 4; Output Control 3; Duty Cycle constant; 2 to 3 cycles). Cell disruption was checked with the aid of a microscope. Remaining unbroken cells were pelleted at 1,000 g for 10 minutes at 4° C. The sucrose buffer supernatant was then centrifuged at 60,000 g for 1 hour at 4° C. (Beckman Ultracentrifuge XL 80). The pellet was resuspended in 30 mL of ice-cold Tris buffer (20 mM TRIS (pH 7.4), 5 μg/mL Pepstatin A, 0.1 mM PMSF, 3 mM EDTA) by pipetting through a 10 mL serological pipette and centrifuged for 1 hour at 4° C. at 60,000 g. A final resuspension was performed in a small volume of ice-cold Tris buffer (see above) by pressing through a serological pipette followed by ultrasonic treatment with a Branson Sonifier W-250 (Settings: Timer 1; Output Control 3; Duty Cycle constant; 1 cycle). Protein concentration was determined (BCA-Kit; Pierce) and aliquots stored at −80° C. or in liquid nitrogen for long-term storage.
Receptor Binding Experiments
All receptor binding experiments were carried out in the corresponding assay buffer in a total volume of 200 μL in the presence of various concentrations of test compound (10^−5 M to 10^−9 M, tenfold serial dilution, duplicate determinations). The assays were terminated by filtration on polyethylenimine (PEI 0.1% or 0.3%) presoaked Packard Unifilter Plates (GF/C or GF/B) with a Tomtec MachIII U 96 well-plate harvester. After the plates had been dried for 2 hours at 55° C. in a drying chamber scintillation cocktail (BetaPlate Scint; PerkinElmer) was added. Radioactivity was measured in a Microbeta Trilux two hours after the addition of the scintillation mixture.
5-HT6 Receptor Binding Assay
HEK293 cells stably expressing the h-5-HT6 receptor (NCBI Reference Sequence XM 001435) were cultured in RPMI1640 medium supplemented with 25 mM HEPES, 10% fetal calf serum and 1-2 mM glutamine. The membrane preparation was performed as described above. […] On the day of the assay, the membranes were thawed, diluted in assay buffer (50 mM Tris-HCl, 5 mM CaCl2, 0.1% ascorbic acid, 10 μM pargyline, pH 7.4) to a concentration of 8 μg protein/assay and homogenized by gentle vortexing. […] Non-specific binding was defined with 1 μM methiothepin. The binding reaction was carried out for 3.5 hours at room temperature. During the incubation, the plates were shaken on a plate shaker at 100 rpm and terminated by filtration on Packard Unifilter GF/C (0.1% PEI) plates, followed by 2 wash cycles with ice-cold 50 mM Tris-HCl, 5 mM CaCl2.
Data derived from liquid scintillation counting were analyzed by iterative non-linear regression analysis with the use of the Statistical Analysis System (SAS): a program similar to “LIGAND” as described by Munson and Rodbard (Anal. Biochem. 1980, 107, 220-239). Fitting was performed according to formulae described by Feldman (Anal. Biochem. 1972, 48, 317-338). IC50 and Ki values were expressed as geometrical mean.

5HT2C receptors [3] = target: T2, 5HT2C receptors; experiment: Human 5-HT2C functional assay in CHO-K1 cells (96-well, calcium, FLIPR); type: cell-based; set-up: expressed in transfected cells; conditions: 5-HT2c agonist activity, CHO-K1 cells stably transfected
Protocol: (iv) Human 5-HT2C Functional Assay in CHO-K1 Cells
Functional activity was determined by testing the effect of the compounds on intracellular calcium levels in CHO-K1 cells stably transfected with the human 5-HT2C receptor. Cells were seeded into 96-well plates at 60,000 cells/well and grown overnight in tissue culture medium (UltraCHO™ (Lonza), containing 1% dFCS, 250 μg/mL Zeocin, 400 μg/mL Geneticin) at 37° C. and 5% CO2. Growth medium was replaced by medium without dFCS for overnight incubation. Cells were loaded with a fluorescent calcium-sensitive dye in the presence of probenicid according to the manufacturer's protocol (FLIPR Ca4 Assay kit, Molecular Devices). Serial compound dilutions (final concentrations 10^−10 to 10^−5 M) were added to the cells and the maximum calcium response was determined using a FLIPR instrument (Molecular Devices). Concentration-response curves were fitted using a four-parameter logistic equation (GraphPad Prism). The concentration at which the compound exerts half its maximal effect is named the ‘effective concentration 50’ or ‘EC50’ and is listed in Table 5.

[4] = target: T4, human serotonin 5-HT2c receptor (Homo sapiens, UniProt P28335); experiment: Human 5-HT2C receptor radioligand binding assay (agonist site, [125I]DOI); conditions: 5-HT2c agonist site; transfected CHO cell membranes; 0.2 nM [125I](±)DOI
T4 construct: expressed in transfected cells; host or cells: CHO cells (membrane homogenates)
T4 sequence (P28335 33-458): T2 sequence (P28335 33-458)
Protocol: (i) Human 5-HT2C Receptor Radioligand Binding Assay
Affinity of compounds for the agonist site of the […], receptor in transfected CHO cells was determined in a radioligand binding assay essentially as described by Bryant, H. U., et al., Life Sciences (1996) 59(15), 1259-1268.

5HT2C receptors [5] = target: T2, 5HT2C receptors; experiment: Human 5-HT2C functional assay in 1321N1 cells (intracellular calcium, FLIPR); type: cell-based; set-up: expressed in transfected cells; host or cells: 1321N1 cells; conditions: 5-HT2c agonist activity, maximum calcium response
Procedure, shortened: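 1321N1 cells stably expressing human 5-HT2C were serum-starved overnight and loaded with Fluo-4 AM and 1% probenecid. Compounds (10^−10 to 10^−5 M) were tested alone or with 10^−9 M serotonin, and peak calcium was read by FLIPR. EC50 from four-parameter logistic fit.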

Ki (h-5-HT6 receptor) | EC50 (5HT2C receptors [3]) | Structure (SMILES) | Emax (5HT2B receptors) | EC50 (5HT2B receptors) | spontaneous activity [1] | AMP-induced hyperactivity [1] | Emax (5HT2C receptors [2]) | EC50 (5HT2C receptors [2]) | Ki [4] | PCP-induced hyperactivity ([1]; test compound ip 30 min before PCP 2.0 mg/kg sc) | EC50 (5HT2C receptors [5])
– | – | CN1C[C@H]2CNC[C@@H]2c2ccc(F)cc2C1=O [Example 225, (3aR,10bS)-8-Fluoro-5-methyl-1,2,3,3a,4,5-hexahydrobenzo[c]pyrrolo[3,4-e]azepin-6(10bH)-one] | 110% | 2000 nM | without affecting spontaneous activity | modestly attenuated AMP-induced hyperactivity in mice; also recorded: attenuating the affect of d-amphetamine (AMP) | > 120% | 20 nM | – | – | –
9.81 nM | > 10000 nM | O=S(=O)(c1cccc(F)c1)N1Cc2ccccc2[C@@H]2CN(Cc3ccc(F)cc3)C[C@H]2C1 (relative stereo) [Example 74, Trans-2-(4-fluorobenzyl)-5-(3-fluorophenylsulfonyl)-1,2,3,3a,4,5,6,10b-octahydrobenzo[c]pyrrolo[3,4-e]azepine] | – | – | – | – | – | – | – | – | –
14.3 nM | > 1000 nM | COc1ccc(CN2C[C@H]3CN(S(=O)(=O)c4cccc(F)c4)Cc4ccccc4[C@@H]3C2)cc1 (relative stereo) [Example 73, Trans-5-(3-fluorophenylsulfonyl)-2-(4-methoxybenzyl)-1,2,3,3a,4,5,6,10b-octahydrobenzo[c]pyrrolo[3,4-e]azepine] | – | – | – | – | – | – | – | – | –
– | – | O=C1NC[C@H]2CNC[C@@H]2c2c(F)cc(F)cc21 [Example 106, (3aR,10bS)-8,10-Difluoro-1,2,3,3a,4,5-hexahydrobenzo[c]pyrrolo[3,4-e]azepin-6(10bH)-one] | 95% | 100 nM | without affecting spontaneous activity | modestly attenuated AMP-induced hyperactivity in mice in a dose dependent manner; also recorded: attenuating the affect of d-amphetamine (AMP) | > 120% | 0.4 nM | – | – | –
– | – | O=C1NC[C@H]2CNC[C@@H]2c2ccccc21 [Example 44, (3aR,10bS)-1,2,3,3a,4,5-Hexahydrobenzo[c]pyrrolo[3,4-e]azepin-6(10bH)-one] | 100% | 500 nM | without affecting spontaneous activity | – | 100% | 1 nM | 9.5 nM | attenuated PCP-induced hyperactivity in mice significantly and in a dose dependent manner; also recorded: attenuating the affect of phencyclidine (PCP) | 3.02 nM
